# Source: US10759783B2, “Biaryl inhibitors of Bruton'S tyrosine kinase” (BIOGEN MA INC., priority 2013, dated 2020)
# Molecular target: T1, BTK enzyme (Homo sapiens, UniProt Q06187)
# T1 construct: purchased Upstate 14-552
# Experiment: In vitro BTK kinase assay: BTK-POLYGAT-LS assay
# Assay type: biochemical
# Details: ATP 10 μM, read-out: IC50 (10uMATP)
# Description: The purpose of the BTK in vitro assay is to determine compound potency against BTK through the measurement of IC50. […] For a typical assay, a 24 μL aliquot of a ATP/peptide master mix (final concentration; ATP 10 μM, polyGAT 100 nM) in kinase buffer (10 mM Tris-HCl pH 7.5, 10 mM MgCl2, 200 μM Na3PO4, 5 mM DTT, 0.01% Triton X-100, and 0.2 mg/ml casein) is added to each well. […] The assay is incubated for 30 minutes before being stopped with 28 μL of a 50 mM EDTA solution. […] The plate is covered and incubated for 45 minutes at room temperature.
# T1 sequence (Q06187 whole entry): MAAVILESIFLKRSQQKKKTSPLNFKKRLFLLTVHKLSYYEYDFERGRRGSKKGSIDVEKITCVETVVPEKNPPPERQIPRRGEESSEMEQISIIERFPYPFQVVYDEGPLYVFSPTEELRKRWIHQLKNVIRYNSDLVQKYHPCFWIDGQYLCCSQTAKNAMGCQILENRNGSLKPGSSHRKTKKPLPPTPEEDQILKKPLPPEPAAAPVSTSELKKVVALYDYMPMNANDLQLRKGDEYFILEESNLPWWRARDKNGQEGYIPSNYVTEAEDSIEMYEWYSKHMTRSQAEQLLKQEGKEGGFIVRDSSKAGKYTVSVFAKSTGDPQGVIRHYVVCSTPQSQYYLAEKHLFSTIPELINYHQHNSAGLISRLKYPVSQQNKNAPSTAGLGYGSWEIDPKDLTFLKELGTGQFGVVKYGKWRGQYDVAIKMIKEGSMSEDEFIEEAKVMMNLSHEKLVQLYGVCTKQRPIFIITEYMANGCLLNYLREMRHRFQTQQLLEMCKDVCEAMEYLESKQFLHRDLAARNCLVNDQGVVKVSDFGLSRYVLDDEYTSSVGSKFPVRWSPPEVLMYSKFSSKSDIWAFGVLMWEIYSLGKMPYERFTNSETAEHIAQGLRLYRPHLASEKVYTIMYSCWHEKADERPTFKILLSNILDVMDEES
row,Structure (SMILES),IC50 [nM]
1,"Cc1cc(-c2ccnc(Nc3cnn(C)c3)n2)ccc1CNC(=O)c1cc2n(n1)CCCC2 [Example I-159, N-(2-Methyl-4-(2-((1-methyl-1H-pyrazol-4-yl)amino)pyrimidin-4-yl)benzyl)-4,5,6,7-tetrahydropyrazolo[1,5-a]pyridine-2-carboxamide]",< 10
2,"Cc1nc(-c2ccnc(Nc3cnn(C)c3)n2)ccc1CNC(=O)c1cnc(C(C)(C)C)s1 [Example I-103, 2-(tert-butyl)-N-((2-methyl-6-(2-((1-methyl-1H-pyrazol-4-yl)amino)pyrimidin-4-yl)pyridin-3-yl)methyl)thiazole-5-carboxamide]",10 to 99
3,"Cc1cc(-c2ccnc(NC3CCOCC3)n2)ccc1CNC(=O)c1cnc(C(C)(C)C)s1 [Example I-26, 2-(tert-butyl)-N-(2-methyl-4-(2-((tetrahydro-2H-pyran-4-yl)amino)pyrimidin-4-yl)benzyl)thiazole-5-carboxamide]",1000 to 10000
4,"CN1CCN(c2ccc(Nc3nccc(-c4ccc5c(c4)CCCC5NC(=O)c4cnc(C(C)(C)C)s4)n3)nc2)CC1 (stereo not drawn) [Example I-96, 2-(tert-butyl)-N-(6-(2-((5-(4-methylpiperazin-1-yl)pyridin-2-yl)amino)pyrimidin-4-yl)-1,2,3,4-tetrahydronaphthalen-1-yl)thiazole-5-carboxamide]",10 to 99
5,"Cc1cc(-c2ccnc(Nc3cnn(C)c3)n2)ccc1CNC(=O)c1cnoc1C [Example I-18, 5-methyl-N-(2-methyl-4-(2-((1-methyl-1H-pyrazol-4-yl)amino)pyrimidin-4-yl)benzyl)isoxazole-4-carboxamide]",100 to 999
6,"CCNc1nccc(-c2ccc(CNC(=O)c3cnc(C(C)(C)C)s3)c(C)c2)n1 [Example I-34, 2-(tert-butyl)-N-(4-(2-(ethylamino)pyrimidin-4-yl)-2-methylbenzyl)thiazole-5-carboxamide]",10 to 99
7,"Cc1cc(-c2ccnc(N)n2)ccc1CNC(=O)c1cncs1 [Example I-84, N-(4-(2-aminopyrimidin-4-yl)-2-methylbenzyl)thiazole-5-carboxamide]",1000 to 10000
8,"Cc1nnc(Nc2nccc(-c3ccc(CNC(=O)c4cnc(C(C)(C)C)s4)c(C)c3)n2)s1 [Example I-59, 2-(tert-butyl)-N-(2-methyl-4-(2-((5-methyl-1,3,4-thiadiazol-2-yl)amino)pyrimidin-4-yl)benzyl)thiazole-5-carboxamide]",10 to 99
9,"Cc1cc(-c2ccnc(Nc3cnn(C)c3)n2)ccc1C(CO)NC(=O)c1cc2c(s1)CCOC2 (stereo not drawn) [Example I-109, N-(2-hydroxy-1-(2-methyl-4-(2-((1-methyl-1H-pyrazol-4-yl)amino)pyrimidin-4-yl)phenyl)ethyl)-6,7-dihydro-4H-thieno[3,2-c]pyran-2-carboxamide]",10 to 99
10,"Cc1cc(-c2ccnc(N)n2)ccc1CNC(=O)c1cc2c(s1)CCN(C)C2 [Example I-141, N-(4-(2-aminopyrimidin-4-yl)-2-methylbenzyl)-5-methyl-4,5,6,7-tetrahydrothieno[3,2-c]pyridine-2-carboxamide]",100 to 999
11,"CN1CCn2nc(Nc3cc(-c4ccc5c(c4)CCCC5NC(=O)c4cnc(C(C)(C)C)s4)ncn3)cc2C1 (stereo not drawn) [Example I-134, 2-(tert-butyl)-N-(6-(6-((5-methyl-4,5,6,7-tetrahydropyrazolo[1,5-a]pyrazin-2-yl)amino)pyrimidin-4-yl)-1,2,3,4-tetrahydronaphthalen-1-yl)thiazole-5-carboxamide]",< 10
12,"Cc1cc(-c2ccnc(Nc3cnn(C)c3)n2)ccc1CNC(=O)c1cccn1C [Example I-158, 1-Methyl-N-(2-methyl-4-(2-((1-methyl-1H-pyrazol-4-yl)amino)pyrimidin-4-yl)benzyl)-1H-pyrrole-2-carboxamide]",100 to 999
13,"Cc1cc(-c2ccnc(Nc3conc3C)n2)ccc1CNC(=O)c1cnc(C(C)(C)C)s1 [Example I-57, 2-(tert-butyl)-N-(2-methyl-4-(2-((3-methylisoxazol-4-yl)amino)pyrimidin-4-yl)benzyl)thiazole-5-carboxamide]",< 10
14,"Cc1cc(-c2cc(Nc3nnn(C)n3)ncn2)ccc1CNC(=O)c1cnc(C(C)(C)C)s1 [Example I-68, 2-(tert-butyl)-N-(2-methyl-4-(6-((2-methyl-2H-tetrazol-5-yl)amino)pyrimidin-4-yl)benzyl)thiazole-5-carboxamide]",10 to 99
15,"Cc1cc(-c2ccnc(NC(C)C)n2)ccc1CNC(=O)c1cnc(C(C)(C)C)s1 [Example I-35, 2-(tert-butyl)-N-(4-(2-(isopropylamino)pyrimidin-4-yl)-2-methylbenzyl)thiazole-5-carboxamide]",1000 to 10000
16,"Cc1cc(-c2ccnc(N)n2)ccc1CNC(=O)c1cn2c(n1)CNCC2 [Example I-74, N-(4-(2-aminopyrimidin-4-yl)-2-methylbenzyl)-5,6,7,8-tetrahydroimidazo[1,2-a]pyrazine-2-carboxamide]",1000 to 10000
17,"Cc1cc(-c2ccnc(Nc3cnn(C)c3)n2)cnc1CNC(=O)c1cnc(C(C)(C)C)s1 [Example I-100, 2-(tert-butyl)-N-((3-methyl-5-(2-((1-methyl-1H-pyrazol-4-yl)amino)pyrimidin-4-yl)pyridin-2-yl)methyl)thiazole-5-carboxamide]",10 to 99
18,"Cc1cc(-c2ccnc(Nc3cnn(C)c3)n2)ccc1CNC(=O)c1cc(C(C)(C)C)on1 [Example I-153, 5-(tert-butyl)-N-(2-methyl-4-(2-((1-methyl-1H-pyrazol-4-yl)amino)pyrimidin-4-yl)benzyl)isoxazole-3-carboxamide]",< 10
19,"Cc1cc(-c2ccnc(N)n2)ccc1CNC(=O)c1cc2c(s1)CCS(=O)(=O)C2 [Example I-138, N-(4-(2-aminopyrimidin-4-yl)-2-methylbenzyl)-6,7-dihydro-4H-thieno[3,2-c]thiopyran-2-carboxamide 5,5-dioxide]",1000 to 10000
20,"CNCc1cc(-c2ccnc(N)n2)ccc1CNC(=O)c1cc2c(s1)CCCC2 [Example I-145, N-(4-(2-aminopyrimidin-4-yl)-2-((methylamino)methyl)benzyl)-4,5,6,7-tetrahydrobenzo[b]thiophene-2-carboxamide]",100 to 999
21,"Cc1cc(-c2ccnc(Nc3c(C)nn(C)c3C)n2)ccc1CNC(=O)c1cnc(C(C)(C)C)s1 [Example I-53, 2-(tert-butyl)-N-(2-methyl-4-(2-((1,3,5-trimethyl-1H-pyrazol-4-yl)amino)pyrimidin-4-yl)benzyl)thiazole-5-carboxamide]",100 to 999
22,"Cc1cc(-c2ccnc(NC3CCS(=O)(=O)CC3)n2)ccc1CNC(=O)c1cnc(C(C)(C)C)s1 [Example I-30, 2-(tert-butyl)-N-(4-(2-((1,1-dioxidotetrahydro-2H-thiopyran-4-yl)amino)pyrimidin-4-yl)-2-methylbenzyl)thiazole-5-carboxamide]",1000 to 10000
23,"Cc1cc(-c2ccnc(N)n2)ccc1CNC(=O)c1cc2n(n1)CCCNC2 [Example I-72, N-(4-(2-aminopyrimidin-4-yl)-2-methylbenzyl)-5,6,7,8-tetrahydro-4H-pyrazolo[1,5-a][1,4]diazepine-2-carboxamide]",1000 to 10000
24,"Cc1cc(-c2ccnc(Nc3cnn(C)c3)n2)ccc1CNC(=O)[C@H]1CC[C@H](C(F)(F)F)CC1 [Example I-11, trans-N-(2-methyl-4-(2-((1-methyl-1H-pyrazol-4-yl)amino)pyrimidin-4-yl)benzyl)-4-(trifluoromethyl)cyclohexanecarboxamide]",10 to 99
